Laboratory results reported in patent US11478558B2, “Prostate-specific membrane antigen targeted high-affinity agents for endoradiotherapy of prostate cancer” (The Johns Hopkins University, priority 2017, dated 2022).

What was measured:
PSMA+ PC3 PIP tumors = assay: Radiopharmaceutical therapy in PC3 PIP flank tumor growth delay model; format: in vivo, NOD/SCID mice; conditions: for Tumor disappear (number of mice): week 8 post-treatment; for Average final body weight: single i.v. dose 111 MBq (3 mCi)
Procedure: (§1) A pilot treatment study using NOD/SCID mice (n=10 per group) bearing PSMA+ PC3 PIP tumors with a single intravenous dose of 111 MBq (3 mCi) of agents ^177Lu-PSMA-617, ^177Lu-1, ^177Lu-3 and ^177Lu-5 and the control group (with saline treatment) were performed (Table 8). Volume of the all control group mice reached >5-fold of their initial tumor volume within 14 days. Mouse euthanized for treated group within 4 weeks of post-injection was mainly due to sudden body weight loss and not related to tumor growth. […] The difference among treatment groups was statistically significant (P=0.002) by the log-rank test compared to the untreated group. […] After 8-weeks, three mice from each treated group were used for detailed blood analysis and necropsy study. All animals underwent radiotherapy study had normal creatinine (0.3-0.4 mg/dL) and blood urea nitrogen levels. […] Additionally, a significant lowering of platelet for all three treated mice from ^177Lu-PSMA-617 compared control group and other treated groups.
Median survival for the ^177Lu-PSMA-617 was 133 days vs. 234 days for ^177Lu-1.
The remaining treated mice survived tumor-free for 10 months and were evaluated for toxicity.
(§2) Antitumor efficacy studies were performed in PC3 PIP flank tumor growth delay model to evaluate the therapeutic efficacy of a single dose intravenous injection of ^177Lu-L1, ^177Lu-L3, ^177Lu-L5 and ^177Lu-PSMA-617 vs. saline. This was a head-to-head comparison study and same batch of tumor-bearing mice and radioactivity. The study was commenced 14-18 days post-inoculation of the xenografts, when all the mice had tumor volume of about ˜60-85 mm^3 (Table 8). All the living mice were monitored for 8 weeks to monitor the growth delay. Mice body weight and tumor volume were monitored every 3 days throughout the experiment. Endpoint criteria defined by the institute ACUC was weight loss≥15%, a tumor volume>1800 mm^3, active ulceration of the tumor or abnormal behavior indicating pain or unease. After 8-weeks, three mice from each group were submitted for detail necropsy and blood analysis. Mice group treated with ^177Lu-1 and ^177Lu-PSMA-617 were continued to monitor until the endpoint. These definitions were also used for Kaplan-Meier analysis. The probability of reaching 5 times the initial tumor volume was characterized using Kaplan-Meier curves, and comparison was performed using the log-rank test. The formula used for calculation of tumor volume was V=width^2×length/2. Toxicity of the ^177Lu-treatment groups after 8-weeks and in healthy CD-1 (n=3) mice treated with 111 MBq was evaluated by pathologic examination at the Johns Hopkins Pathology Core facility with serum metabolic panel, blood counts, and full necropsy including detailed histopathology of kidneys, salivary glands and lacrimal glands.

[1] = Blood analysis and necropsy after radiotherapy; format: in vivo, NOD/SCID mice; conditions: one-year post-treatment in tumor-free mice, 111 MBq
PSMA(−) PC3 flu cells = assay: Cell uptake in PSMA(−) PC3 flu cells; format: cell-based, human
PSMA(+) PC3 PIP cells = assay: Cell uptake, cell surface binding and internalization in PSMA(+) PC3 PIP cells; format: cell-based, human; conditions: for Blockade PC3 PIP: ZJ43 10 μM; for total uptake within the PSMA(+) PC3 PIP cells: 1 h to 24 h
PSMA+ PC3 PIP cells = assay: Clonogenic cell survival assay in PSMA+ PC3 PIP cells; format: cell-based, human
[2] = tested on: PSMA(+) PC3 PIP and PSMA(−) PC3 flu tumor xenografts; assay: Biodistribution of 177Lu compounds (Example 5)
[3] = tested on: PSMA(+) tumors and normal tissues; assay: Self-blocking (receptor blockade) biodistribution; format: in vivo, mouse; conditions: at 10-fold kidney blockade
Description: Development of receptor blockade for normal organs. The blocking effect of 1 was quantified in normal tissues using ^177Lu-1. A drastic reduction of renal uptake was observed while maintaining high uptake in PSMA(+) tumors (FIG. 12). […] Blocking strategies. […] These daughters, once formed, are unlikely to associate with the chelate construct due to high atomic recoil-energy as a result of α-decay. Without wishing to be bound to any one particular theory, it is thought that acute salivary gland toxicity caused by ^225Ac-PSMA-617 is most likely due to PSMA-based internalization of the agent followed by daughter release in striated duct or acini. Both biodistribution data and α-camera imaging will be used to interpret the data. Different pharmacologic agents will be evaluated to avoid renal and salivary gland radio toxicity. […]

PC3-ML-Luc-PSMA = assay: Treatment study in micrometastatic PC3-ML-Luc-PSMA model; format: in vivo, mouse; conditions: 37 MBq
Description: (middle) Changes in bodyweight during the treatment study. (bottom) Kaplan-Meier survival curve for treatment study in micrometastatic PC3-ML-Luc-PSMA model, median survival for 51 days (untreated) vs 52 days for ^177Lu-PSMA-617 (37 MBq) and 56 days for 225Ac-1 (37 kBq) and 79 days for 225Ac-1 (74 kBq);

[4] = Blood analysis and necropsy after radiotherapy; format: in vivo, NOD/SCID mice
Procedure: as §1
Significant and concerning changes were identified in testes, and lacrimal grands primarily (FIG. 25) for all treated groups. […] Parotid glands, usually adjacent to exorbital lacrimal gland, are conspicuously spared and there were mild changes in the group treated ^177Lu-PSMA-617. […] T lymphoblastic lymphoma is accelerated by irradiation and some carcinogens, and is associated with interactions of endogenous retroviruses/retroelements in NOD/SCID mouse strains. […] The cells are large up to 25 μm, with very large nuclei (for a mouse) usually 2-3 nucleoli, and a high mitotic rate. Testis and lacrimal gland degenerative changes indicate that this animal did receive a treatment similar to other treated mice.
as §2

[5] = 111 MBq (3 mCi), after eight weeks, n=3

Row | Structure (SMILES) | Median survival After 8 weeks post-treatment (PSMA+ PC3 PIP tumors; 111 MBq) | Tumor disappear (number of mice) (PSMA+ PC3 PIP tumors; 111 MBq) | Average final body weight (PSMA+ PC3 PIP tumors) [gram] | Cell uptake PC3 flu (PSMA(−) PC3 flu cells; 1 h) | Cell uptake PC3 flu (PSMA(−) PC3 flu cells; 2 h) | Cell uptake PC3 flu (PSMA(−) PC3 flu cells; 4 h) | Cell uptake PC3 flu (PSMA(−) PC3 flu cells; 24 h) | Cell uptake PC3 PIP (PSMA(+) PC3 PIP cells; 1 h) | PC3 PIP cell Int (internalization) (PSMA(+) PC3 PIP cells; 1 h) | Blockade PC3 PIP (PSMA(+) PC3 PIP cells; 1 h) | total uptake within the PSMA(+) PC3 PIP cells (PSMA(+) PC3 PIP cells) | Cell uptake PC3 PIP (PSMA(+) PC3 PIP cells; 2 h) | PC3 PIP, line without name (position of cell internalization) (PSMA(+) PC3 PIP cells; 2 h) | Cell uptake PC3 PIP (PSMA(+) PC3 PIP cells; 4 h) | PC3 PIP cell int (internalization) (PSMA(+) PC3 PIP cells; 4 h) | Cell uptake PC3 PIP (PSMA(+) PC3 PIP cells; 24 h) | PC3 PIP cell int (internalization) (PSMA(+) PC3 PIP cells; 24 h) | also measured
1 | O=C([O-])CN1CCN(CC(=O)[O-])CCN(CC(=O)NCCCCC(=O)N(CCCC[C@H](NC(=O)N[C@@H](CCC(=O)O)C(=O)O)C(=O)O)Cc2ccc(Br)cc2)CCN(CC(=O)[O-])CC1.[177Lu+3] [^177Lu-L1] | Not reached | disappear 7 | 26.1 ± 1.4 | 0.2 ± 0.0 % incubated dose per 1 x 10^6 cells | 0.1 ± 0.0 % incubated dose per 1 x 10^6 cells | 0.1 ± 0.0 % incubated dose per 1 x 10^6 cells | 0.2 ± 0.1 % incubated dose per 1 x 10^6 cells | 32.1 ± 0.1 % incubated dose per 1 x 10^6 cells | 18.8 ± 0.8 % incubated dose per 1 x 10^6 cells | 0.2 ± 0.0 % incubated dose per 1 x 10^6 cells | ~30 % of the incubated dose | 36.7 ± 0.5 % incubated dose per 1 x 10^6 cells | 22.0 ± 0.6 % incubated dose per 1 x 10^6 cells | 39.1 ± 0.5 % incubated dose per 1 x 10^6 cells | 26.6 ± 1.2 % incubated dose per 1 x 10^6 cells | 46.2 ± 0.2 % incubated dose per 1 x 10^6 cells | 24.6 ± 0.2 % incubated dose per 1 x 10^6 cells | Mouse death (number of mice) (PSMA+ PC3 PIP tumors; 111 MBq, up to week 8 post-treatment): Death 1; radiation nephropathy at necropsy [1]: did not reveal any radiation nephropathy
2 | O=C([O-])CN1CCN(CC(=O)[O-])CCN(CC(=O)O)C(Cc2ccc(NC(=S)NCCCCC(=O)N(CCCC[C@H](NC(=O)N[C@@H](CCC(=O)O)C(=O)O)C(=O)O)Cc3ccc(Br)cc3)cc2)CN(CC(=O)[O-])CC1.[177Lu+3] (some centres unmarked) [^177Lu-L8] | – | – | – | – | – | – | – | – | – | – | – | – | – | – | – | – | – | D0 (37% survival) (PSMA+ PC3 PIP cells; 48 h incubation): 0.3-0.6 μCi/mL; Cell surviving fraction (PSMA+ PC3 PIP cells; incubated for 2 h and 24 h): > 0.8; mice with tumor growth with relative volume>5 after 8 weeks (PSMA+ PC3 PIP tumors; 111 MBq, n=10): only two mice; tumor-free survival of remaining treated mice (PSMA+ PC3 PIP tumors; 111 MBq, n=10): 10 months; unexpected death of mice (used for SPECT/CT imaging) (PSMA+ PC3 PIP tumors; 111 MBq, n=10): three mice; fold higher internalization compared to 177Lu-7 (PSMA(+) PC3 PIP cells; all time-points up to 24 h): > 1.5 fold; PSMA(+) PC3 PIP tumor uptake ([2]; 2 h): 55.4±7.2 % ID/g; PSMA(+) PC3 PIP tumor uptake ([2]; 24 h post-injection): 40.6±7.0 % ID/g; PSMA(+) PC3 PIP tumor uptake ([2]; 48 h): 27.0±7.0 % ID/g; PSMA(+) PC3 PIP tumor uptake ([2]; fourth time point, time not given): 24.9±2.3 % ID/g
3 | O=C([O-])CN1CCN(CC(=O)[O-])CCN(C(CCC(=O)NCCCCC(=O)N(CCCC[C@H](NC(=O)N[C@@H](CCC(=O)O)C(=O)O)C(=O)O)Cc2ccc(Br)cc2)C(=O)O)CCN(CC(=O)[O-])CC1.[177Lu+3] (some centres unmarked) [^177Lu-L9] | – | – | – | – | – | – | – | – | – | – | – | – | – | – | – | – | – | effect of self-blockade on tumor uptake [3]: significant tumor uptake blockade; cell uptake and internalization (PSMA(+) PC3 PIP cells): ~70%; Kidney uptake ([2]; 2 h): 149.7±32.0 % ID/g; Kidney uptake ([2]; 24 h (so in the source)): 5.9±2.7 % ID/g; fold renal clearance ([2]; within 24 h): ~30 fold
4 | O=C([O-])CN1CCN(CC(=O)[O-])CCN(CC(=O)NCC2CCC(C(=O)N[C@@H](Cc3ccc4ccccc4c3)C(=O)NCCCC[C@H](NC(=O)N[C@@H](CCC(=O)O)C(=O)O)C(=O)O)CC2)CCN(CC(=O)[O-])CC1.[177Lu+3] (some centres unmarked) [^177Lu-PSMA-617, reference compound] | Not reached | disappear 5 | 24.6 ± 3.6 | 0.1 ± 0.01 % incubated dose per 1 x 10^6 cells | 0.1 ± 0.0 % incubated dose per 1 x 10^6 cells | 0.1 ± 0.06 % incubated dose per 1 x 10^6 cells | 0.1 ± 0.01 % incubated dose per 1 x 10^6 cells | 42.2 ± 0.80 % incubated dose per 1 x 10^6 cells | 18.8 ± 1.2 % incubated dose per 1 x 10^6 cells | 0.1 ± 0.0 % incubated dose per 1 x 10^6 cells | ~40 % of the incubated dose | 44.6 ± 1. % incubated dose per 1 x 10^6 cells | 21.1 ± 0.9 % incubated dose per 1 x 10^6 cells | 47.6 ± 1.13 % incubated dose per 1 x 10^6 cells | 26.1 ± 1.0 % incubated dose per 1 x 10^6 cells | 54.2 ± 0.21 % incubated dose per 1 x 10^6 cells | 26.4 ± 0.8 % incubated dose per 1 x 10^6 cells | Tumors above stated relative tumor growth after week 8 post-treatment (Vt/V0) (PSMA+ PC3 PIP tumors; 111 MBq): one tumor > 4; median survival (PSMA+ PC3 PIP tumors; 111 MBq, followed to predefined end-point): 133 days; median survival (PC3-ML-Luc-PSMA): 52 days; Albumin [4, 5]: 2.9 ± 0.2 g/dL; Blood urea nitrogen [4, 5]: 23.3 ± 2.5 mg/dL; Hematocrit [4, 5]: 42.9 ± 4.5%; Hemoglobin [4, 5]: 12.8 ± 1.0 g/dL; Lymphocytes [4, 5]: 0.7 ± 0.1 K/μL; Mean Corpuscular Value(MCV) [4, 5]: 52.2 ± 1.6 fL; Neutrophils [4, 5]: 3.5 ± 3.8 K/μL; Platelets [4, 5]: 916.0 ± 141.6 K/μL; Red blood cells [4, 5]: 8.2 ± 0.7 M/μL; Total protein [4, 5]: 5.5 ± 0.5 g/dL; White blood cells [4, 5]: 5.05 ± 4.1 K/μL; H&E pathology of testis ([4]; 111 MBq, after 8 weeks): most significant changes in testis; neutrophil counts ([4]; 111 MBq, after 8 weeks): up to 3.5±3.8 K/mL; Kidney uptake ([2]; 3 h post-injection): 9.81±6.54 % ID/g
